Source: US11119094B2, “Aqueous citrate-buffered metal solutions” (CD DIAGNOSTICS, INC., priority 2017, dated 2021)

Key:
[1] = test system: lymphocytes; test: Lymphocyte Transformation Test for metal sensitivity (stimulation index); type: cell-based; conditions: SI≥4 positive
Text: The Lymphocyte Transformation Test used for Metal Sensitivity Testing measures cell proliferation relative to a negative control.

[2] = test system: mononuclear cells; test: Lymphocyte Transformation Test with PWM positive control in the presence of metals (toxicity); type: cell-based; conditions: metals stabilized with citrate
Text: In this example, each metal tested was stabilized with citrate.

**Q.** polkweed mitogen [PWM] was tested. Which “Stimulation Index” value ([1]; Subject 19A, 6 Dec. 2016, assay with citrate) did it give?
**A.** Its value is 108.15.

**Q.** What about the “Stimulation Index” value ([1]; Subject 19A, 15 Jul. 2016, assay without citrate) of the same substance?
**A.** The value was 124.

**Q.** And the “Stimulation Index” value ([1]; Subject 21R, 3 Feb. 2017, assay with citrate)?
**A.** Its value is 75.85.

**Q.** What about the “Stimulation Index” value ([1]; Subject 21R, 19 Jul. 2016, assay without citrate) of the same substance?
**A.** Its value is 223.

**Q.** And the “Stimulation Index” value ([1]; Subject 20112, 11 Jan. 2017, assay with citrate)?
**A.** The value was 691.43.

**Q.** What about the “Stimulation Index” value ([1]; Subject 20112, 11 Nov. 2016, assay without citrate) of the same substance?
**A.** The value was 669.51.

**Q.** And the “Stimulation Index” value ([1]; Subject 71390, 4 Nov. 2016, assay without citrate)?
**A.** The value was 119.6.

**Q.** And the “Stimulation Index” value ([1]; Subject 71390, 11 Jan. 2017, assay with citrate)?
**A.** The value was 128.6.

**Q.** What about the “Stimulation Index for PWM in the presence of 0.1 mM metals” value (from here on “Stimulation Index for PWM”) ([2]; Donor LS 23 89053D) of the same substance?
**A.** Its value is 217.

**Q.** What about the “Stimulation Index for PWM” value ([2]; Donor LS 23 89054C) of the same substance?
**A.** Its value is 40.

**Q.** And the “Stimulation Index for PWM” value ([2]; Donor LS 23 89058C)?
**A.** Its value is 202.

**Q.** What about the “Stimulation Index for PWM” value ([2]; Donor LS 23 89063E) of the same substance?
**A.** The value was 362.
